By EC50 is commonly meant the concentration at which the effect is half-maximal. A word on the IC50: it is the midpoint of a concentration-inhibition curve. The low end stands for inhibition by little substance, the high end for a need for much substance.

In assay [1] the target is T1, Oxysterols receptor LXR-beta (Homo sapiens, UniProt P55055).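 Further: agonist activity at LXR measured by a cell-based luminescence readout across a dose range, run as a counterscreen for daf-12 agonists; HEK293 cells with Gal4-LXR fusion and GAL4-driven luciferase reporter; potency for activation of Gal4-LXR reporter so compounds are agonists.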
T1 sequence (P55055 whole entry): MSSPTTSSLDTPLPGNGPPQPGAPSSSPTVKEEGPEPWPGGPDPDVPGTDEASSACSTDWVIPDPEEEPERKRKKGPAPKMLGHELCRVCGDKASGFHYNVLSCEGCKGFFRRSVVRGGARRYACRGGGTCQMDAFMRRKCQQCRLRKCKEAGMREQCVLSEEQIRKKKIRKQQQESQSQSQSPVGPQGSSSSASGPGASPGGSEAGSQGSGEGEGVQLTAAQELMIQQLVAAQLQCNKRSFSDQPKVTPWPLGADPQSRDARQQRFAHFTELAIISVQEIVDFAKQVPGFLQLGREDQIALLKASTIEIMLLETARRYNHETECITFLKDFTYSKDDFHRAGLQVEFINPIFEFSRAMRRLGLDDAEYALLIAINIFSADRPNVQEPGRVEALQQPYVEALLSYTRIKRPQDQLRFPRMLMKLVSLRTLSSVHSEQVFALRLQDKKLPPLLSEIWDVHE
The class given is functional, cell-based.

Assay [2] concerns the target T2, Mannose-6-phosphate isomerase (Homo sapiens, UniProt P34949).
T2 sequence (P34949 whole entry): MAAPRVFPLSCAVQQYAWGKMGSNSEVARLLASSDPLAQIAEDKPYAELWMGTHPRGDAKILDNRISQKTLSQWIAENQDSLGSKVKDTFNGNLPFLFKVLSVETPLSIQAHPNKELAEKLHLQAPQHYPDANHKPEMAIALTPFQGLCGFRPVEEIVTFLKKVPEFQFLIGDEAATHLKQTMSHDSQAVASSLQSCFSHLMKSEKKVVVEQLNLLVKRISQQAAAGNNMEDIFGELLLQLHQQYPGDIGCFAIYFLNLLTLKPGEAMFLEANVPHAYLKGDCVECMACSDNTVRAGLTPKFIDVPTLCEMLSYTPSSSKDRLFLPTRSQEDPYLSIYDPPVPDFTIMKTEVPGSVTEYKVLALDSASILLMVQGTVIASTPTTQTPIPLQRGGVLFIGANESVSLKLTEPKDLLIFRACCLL
Nature of the assay: MPI inhibition at elevated mannose 6-phosphate – biochemical, fluorescence intensity, high mannose 6-phosphate, primary screen (AID 1220).

Active and inactive are the calls of the source.

As to `C/C(=N\c1cccc(C)c1)c1sc2ccccc2c1O`, in assay [1], the EC50 was > 67.6 µM (inactive). For the molecule `COc1ccc(/C=N/Nc2cc(N(C)C)nc(N(C)C)n2)cc1`, the IC50 in assay [2] was > 50 µM (not active).

(Values after ChEMBL document CHEMBL1201862, “PubChem BioAssay data set” (2004).)
